Measurements published in the supplement of paper PMC10307832.

Experiments:
Test in all cases: relative viability (nuclei count vs DMSO), 5 days (fraction); higher = more cells survive
Darinaparsin + OSI-027 = compound: C[As](C)SC[C@H](NC(=O)CC[C@H](N)C(=O)O)C(=O)NCC(=O)O [Darinaparsin] + COc1cccc2cc(-c3nc([C@H]4CC[C@H](C(=O)O)CC4)n4ncnc(N)c34)[nH]c12 [OSI-027] (partner 0.5 µM)
How it was run: (§1)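 Relative viability was taken as the ratio of nuclei in treated wells to nuclei in vehicle wells. Lung cancer cell lines in 1536-well plates received compounds by pin tool one day after seeding, either one drug alone or a fixed anchor-drug dose plus five library-drug doses (not always all listed) in √10 steps. Nuclei were counted on 4× images after 5 days of treatment, and values are medians of duplicate plates.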

AZ628 + Foretinib = compound: CC1=C(C=C(C=C1)NC(=O)C2=CC(=CC=C2)C(C)(C)C#N)NC3=CC4=C(C=C3)N=CN(C4=O)C [AZ628] + COc1cc2c(Oc3ccc(NC(=O)C4(C(=O)Nc5ccc(F)cc5)CC4)cc3F)ccnc2cc1OCCCN1CCOCC1 [Foretinib] (partner 0.25 µM)
How it was run: as §1

QS11 + Pemetrexed = compound: C1CC2=C(C1)C=C(C=C2)OC3=NC(=C4C(=N3)N(C=N4)CC5=CC=C(C=C5)C6=CC=CC=C6)N[C@@H](CC7=CC=CC=C7)CO [QS11] + Nc1nc2[nH]cc(CCc3ccc(C(=O)N[C@@H](CCC(=O)O)C(=O)O)cc3)c2c(=O)[nH]1 [Pemetrexed] (partner 0.2 µM)
How it was run: as §1

QS11 + Luminespib = compound: C1CC2=C(C1)C=C(C=C2)OC3=NC(=C4C(=N3)N(C=N4)CC5=CC=C(C=C5)C6=CC=CC=C6)N[C@@H](CC7=CC=CC=C7)CO [QS11] + CCNC(=O)c1noc(-c2cc(C(C)C)c(O)cc2O)c1-c1ccc(CN2CCOCC2)cc1 [Luminespib] (partner 0.01 µM)
How it was run: as §1

Q: With NCI-H1734 as the cell line, how does the relative viability (Darinaparsin + OSI-027; first compound 0.08 µM) read?
A: 0.684

Q: What about the relative viability (Darinaparsin + OSI-027; first compound 0.8 µM) of the same cell line?
A: 0.595

Q: What about the relative viability (Darinaparsin + OSI-027; first compound 2.53 µM) of the same cell line?
A: 0.621

Q: And the relative viability (Darinaparsin + OSI-027; first compound 8 µM)?
A: 0.739

Q: What about the relative viability (AZ628 + Foretinib; first compound 0.08 µM) of the same cell line?
A: 0.667

Q: What about the relative viability (AZ628 + Foretinib; first compound 0.253 µM) of the same cell line?
A: 0.759

Q: And the relative viability (AZ628 + Foretinib; first compound 0.8 µM)?
A: 0.686

Q: What about the relative viability (AZ628 + Foretinib; first compound 2.53 µM) of the same cell line?
A: 0.753

Q: And the relative viability (AZ628 + Foretinib; first compound 8 µM)?
A: 0.416

Q: And the relative viability (QS11 + Pemetrexed; first compound 0.08 µM)?
A: 0.374

Q: And the relative viability (QS11 + Pemetrexed; first compound 0.253 µM)?
A: 0.393

Q: And the relative viability (QS11 + Pemetrexed; first compound 0.8 µM)?
A: 0.393

Q: And the relative viability (QS11 + Pemetrexed; first compound 2.53 µM)?
A: 0.472

Q: And the relative viability (QS11 + Pemetrexed; first compound 8 µM)?
A: 0.424

Q: What about the relative viability (QS11 + Luminespib; first compound 0.08 µM) of the same cell line?
A: 0.2

Q: And the relative viability (QS11 + Luminespib; first compound 0.253 µM)?
A: 0.199

Q: What about the relative viability (QS11 + Luminespib; first compound 0.8 µM) of the same cell line?
A: 0.186

Q: And the relative viability (QS11 + Luminespib; first compound 2.53 µM)?
A: 0.179

Q: What about the relative viability (QS11 + Luminespib; first compound 8 µM) of the same cell line?
A: 0.168

Q: Which results are given for NCI-H1993?
A: relative viability (Darinaparsin + OSI-027; first compound 0.08 µM): 0.542; relative viability (Darinaparsin + OSI-027; first compound 0.8 µM): 0.527; relative viability (Darinaparsin + OSI-027; first compound 2.53 µM): 0.493; relative viability (Darinaparsin + OSI-027; first compound 8 µM): 0.551; relative viability (AZ628 + Foretinib; first compound 0.08 µM): 1.05; relative viability (AZ628 + Foretinib; first compound 0.253 µM): 0.68; relative viability (AZ628 + Foretinib; first compound 0.8 µM): 0.714; relative viability (AZ628 + Foretinib; first compound 2.53 µM): 0.715; relative viability (AZ628 + Foretinib; first compound 8 µM): 0.667; relative viability (QS11 + Pemetrexed; first compound 0.08 µM): 0.649; relative viability (QS11 + Pemetrexed; first compound 0.253 µM): 0.503; relative viability (QS11 + Pemetrexed; first compound 0.8 µM): 0.618; relative viability (QS11 + Pemetrexed; first compound 2.53 µM): 0.573; relative viability (QS11 + Pemetrexed; first compound 8 µM): 0.618; relative viability (QS11 + Luminespib; first compound 0.08 µM): 0.831; relative viability (QS11 + Luminespib; first compound 0.253 µM): 0.74; relative viability (QS11 + Luminespib; first compound 0.8 µM): 0.739; relative viability (QS11 + Luminespib; first compound 2.53 µM): 0.77; relative viability (QS11 + Luminespib; first compound 8 µM): 0.68

Q: Which relative viability (Darinaparsin + OSI-027; first compound 0.08 µM) does the source give for NCI-H23 here?
A: 0.668

Q: And the relative viability (Darinaparsin + OSI-027; first compound 0.8 µM)?
A: 0.579

Q: And the relative viability (Darinaparsin + OSI-027; first compound 2.53 µM)?
A: 0.669

Q: And the relative viability (Darinaparsin + OSI-027; first compound 8 µM)?
A: 0.606

Q: And the relative viability (AZ628 + Foretinib; first compound 0.08 µM)?
A: 0.989

Q: And the relative viability (AZ628 + Foretinib; first compound 0.253 µM)?
A: 0.967

Q: What about the relative viability (AZ628 + Foretinib; first compound 0.8 µM) of the same cell line?
A: 0.768

Q: What about the relative viability (AZ628 + Foretinib; first compound 2.53 µM) of the same cell line?
A: 0.773

Q: What about the relative viability (AZ628 + Foretinib; first compound 8 µM) of the same cell line?
A: 0.588

Q: And the relative viability (QS11 + Pemetrexed; first compound 0.08 µM)?
A: 0.766

Q: And the relative viability (QS11 + Pemetrexed; first compound 0.253 µM)?
A: 0.582

Q: What about the relative viability (QS11 + Pemetrexed; first compound 0.8 µM) of the same cell line?
A: 0.694

Q: What about the relative viability (QS11 + Pemetrexed; first compound 2.53 µM) of the same cell line?
A: 0.657

Q: And the relative viability (QS11 + Pemetrexed; first compound 8 µM)?
A: 0.689

Q: What about the relative viability (QS11 + Luminespib; first compound 0.08 µM) of the same cell line?
A: 0.212

Q: What about the relative viability (QS11 + Luminespib; first compound 0.253 µM) of the same cell line?
A: 0.237

Q: What about the relative viability (QS11 + Luminespib; first compound 0.8 µM) of the same cell line?
A: 0.208

Q: What about the relative viability (QS11 + Luminespib; first compound 2.53 µM) of the same cell line?
A: 0.227

Q: What about the relative viability (QS11 + Luminespib; first compound 8 µM) of the same cell line?
A: 0.182

Q: Which results are given for NCI-H1623?
A: relative viability (Darinaparsin + OSI-027; first compound 0.08 µM): 0.429; relative viability (Darinaparsin + OSI-027; first compound 0.8 µM): 0.496; relative viability (Darinaparsin + OSI-027; first compound 2.53 µM): 0.471; relative viability (Darinaparsin + OSI-027; first compound 8 µM): 0.393; relative viability (AZ628 + Foretinib; first compound 0.08 µM): 0.848; relative viability (AZ628 + Foretinib; first compound 0.253 µM): 0.829; relative viability (AZ628 + Foretinib; first compound 0.8 µM): 0.62; relative viability (AZ628 + Foretinib; first compound 2.53 µM): 0.764; relative viability (AZ628 + Foretinib; first compound 8 µM): 0.498; relative viability (QS11 + Luminespib; first compound 0.08 µM): 0.529; relative viability (QS11 + Luminespib; first compound 0.253 µM): 0.705; relative viability (QS11 + Luminespib; first compound 0.8 µM): 0.486; relative viability (QS11 + Luminespib; first compound 2.53 µM): 0.479; relative viability (QS11 + Luminespib; first compound 8 µM): 0.503
